{"source": "paper PMC13379085", "about": "(PLOS Neglected Tropical Diseases, 2026)", "key": {"lysozyme [1]": {"target": "T1, lysozyme (Homo sapiens, UniProt P61626)", "T1 sequence (P61626 19-148)": "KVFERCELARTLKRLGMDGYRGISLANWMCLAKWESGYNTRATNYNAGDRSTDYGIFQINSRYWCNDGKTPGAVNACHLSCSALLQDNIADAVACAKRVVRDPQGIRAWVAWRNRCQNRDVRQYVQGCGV", "test": "Thermal proteome profiling (TPP) in Leishmania infected macrophage lysate", "assay_type": "binding", "parameters": "endogenous in cells; host or cells: PMA-differentiated THP-1 macrophages infected with L. mexicana (lysate)", "settings": "100 µM 197 in L. mexicana infected THP-1 lysate", "protocol": "To generate cell lysate, ten million THP-1 cells were plated overnight in a 10 cm dish, then differentiated with 150 nM phorbol 12-myristate 13-acetate (PMA) for 72 hours. The resulting macrophages were infected with L. mexicana promastigotes at a multiplicity of infection of 10 and incubated for 18 hours. After infection, cells were washed three times with PBS to remove extracellular promastigotes. Cells were then collected by scraping and pelleted with centrifugation. The cell pellet was resuspended in phosphate buffered saline and subjected to five freeze-thaw cycles. Samples were centrifuged 14,000g x 10 minutes to remove cellular debris. Protein concentration of supernatant was determined by BCA assay and cell lysate was stored at -80 ° C until further use.\nThe cell lysate was divided into two portions. One portion was spiked with 197 in DMSO to generate the ‘with ligand’ sample; and the other portion was spiked with DMSO to generate the ‘without ligand’ sample. The final concentration of 197 in the ‘with ligand’ sample was 100 µM, and both the without and with ligand samples contained 1% DMSO. The with and without samples were each subjected five replicate one-pot TPP analyses like that previously described. […]"}, "lysozyme [2]": {"target": "T1, lysozyme", "test": "Fluorometric lysozyme activity assay", "assay_type": "biochemical", "parameters": "purchased Sigma L1667", "settings": "lysozyme 1mg/mL; 0, 1, and 50 µM 197", "protocol": "Recombinant human lysozyme protein (1mg/mL, Sigma, Cat # L1667) was incubated with 0 µM, 1 µM or 50 µM 197. Lysozyme activity was measured via a fluorometric assay (Abcam, Cat # ab211113) according to manufacturer’s protocol."}}, "data": [{"compound": "O=C(CNCc1cccc(F)c1)Nc1ccc(-n2cc(C(F)(F)F)nc2-c2ccc(-c3ccc(C(F)(F)F)cc3)cc2)cc1", "note": "[Compound 197]", "values": [{"measurement": "TPP z-score for lysozyme", "setting": "lysozyme [1]", "value": 4.32}, {"measurement": "lysozyme activity", "setting": "lysozyme [2]", "value": "dose-dependent increase"}]}]}
